# Patent US20170190671A1, “BIS(ARYL)CATECHOL DERIVATIVES AS HERBICIDES” (E I DU PONT DE NEMOURS AND COMPANY, priority 2014, published 2017)
# How the values were obtained:
# Type in all cases: in vivo
# [1] = test system: barnyardgrass (Echinochloa crus-galli); assay: Test C postemergence; settings: Echinochloa crus-galli, post-emergence, Postemergence, scale 0 to 100, read-out: Plant response rating, Barnyardgrass
# wild oat (Avena fatua) = assay: Test C postemergence; settings: Avena fatua, post-emergence, Postemergence, scale 0 to 100, read-out: Plant response rating, Oat, Wild
# [2] = test system: waterhemp (common waterhemp, Amaranthus rudis); assay: Test C postemergence; settings: Amaranthus tuberculatus, post-emergence, Postemergence, scale 0 to 100, read-out: Plant response rating, Waterhemp
# soybean (Glycine max) = assay: Test C postemergence; settings: Glycine max, post-emergence, Postemergence, scale 0 to 100, read-out: Plant response rating, Soybean
# [3] = test system: morningglory (Ipomoea coccinea); assay: Test C postemergence; settings: Ipomoea, post-emergence, 336 h, Postemergence, scale 0 to 100, read-out: Plant response rating, Morningglory
# [4] = test system: lambsquarters (Chenopodium album); assay: Test C postemergence; settings: Chenopodium album, post-emergence, 336 h, Postemergence, scale 0 to 100, read-out: Plant response rating, Lambsquarters
# corn (Zea mays) = assay: Test C postemergence; settings: Zea mays, post-emergence, 336 h, Postemergence, scale 0 to 100
# [5] = test system: blackgrass (Alopecurus myosuroides); assay: Test C postemergence; settings: Alopecurus myosuroides, post-emergence, 336 h, Postemergence, scale 0 to 100, read-out: Plant response rating, Blackgrass
# [6] = test system: Italian ryegrass (Lolium multiflorum); assay: Test C postemergence; settings: Lolium multiflorum, post-emergence, 336 h, Postemergence, scale 0 to 100, read-out: Plant response rating, Ryegrass, Italian
# [7] = test system: ragweed (common ragweed, Ambrosia elatior); assay: Test C postemergence; settings: Ambrosia artemisiifolia, post-emergence, 336 h, Postemergence, scale 0 to 100, read-out: Plant response rating, Ragweed
# [8] = test system: johnsongrass (Sorghum halepense); assay: Test C postemergence; settings: Sorghum halepense, post-emergence, 336 h, Postemergence, scale 0 to 100, read-out: Plant response rating, Johnsongrass
# [9] = test system: oilseed rape (Brassica napus); assay: Test C postemergence; settings: Brassica napus, post-emergence, Postemergence, scale 0 to 100, read-out: Plant response rating, Oilseed Rape
# [10] = test system: yellow nutsedge (Cyperus esculentus); assay: Test C postemergence; settings: Cyperus, post-emergence, 336 h, Postemergence, scale 0 to 100, read-out: Plant response rating, Nutsedge, Yellow
# [11] = test system: winter wheat (Triticum aestivum); assay: Test C postemergence; settings: Triticum aestivum, post-emergence, 336 h, Postemergence, scale 0 to 100, read-out: Plant response rating, Wheat
# [12] = test system: large (Lg) crabgrass (Digitaria sanguinalis); assay: Test C postemergence; settings: Digitaria sanguinalis, post-emergence, 336 h, Postemergence, scale 0 to 100, read-out: Plant response rating, Crabgrass, Large
# [13] = test system: giant foxtail (Setaria faberii); assay: Test C postemergence; settings: Setaria faberi, post-emergence, 336 h, Postemergence, scale 0 to 100, read-out: Plant response rating, Foxtail, Giant
# [14] = test system: galium (catchweed bedstraw, Galium aparine); assay: Test C postemergence; settings: Galium, post-emergence, 336 h, Postemergence, scale 0 to 100, read-out: Plant response rating, Galium
# [15] = test system: chickweed (common chickweed, Stellaria media); assay: Test C postemergence; settings: Stellaria media, post-emergence, Postemergence, scale 0 to 100, read-out: Plant response rating, Chickweed
# [16] = test system: velvetleaf (Abutilon theophrasti); assay: Test C postemergence; settings: Abutilon theophrasti, post-emergence, Postemergence, scale 0 to 100, read-out: Plant response rating, Velvetleaf
# [17] = test system: barnyardgrass (Echinochloa crus-galli); assay: Test C preemergence; settings: Echinochloa crus-galli, pre-emergence, preemergence, scale 0 to 100, read-out: Plant response rating, Barnyardgrass
# Procedure, shortened: (§1)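 0-100 visual injury score (100 = complete control), assessed at 13-15 d after treatment against controls; surfactant-containing solvent formulation applied preemergence to seeded loam-sand soil or sprayed onto 1- to 4-leaf greenhouse plants.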
# [18] = test system: johnsongrass (Sorghum halepense); assay: Test C preemergence; settings: Sorghum halepense, pre-emergence, 336 h, preemergence, scale 0 to 100, read-out: Plant response rating, Johnsongrass
# Procedure, shortened: as §1
# [19] = test system: galium (catchweed bedstraw, Galium aparine); assay: Test C preemergence; settings: Galium, pre-emergence, 336 h, preemergence, scale 0 to 100, read-out: Plant response rating, Galium
# Procedure, shortened: as §1
compound,measurement,setting,value
"Fc1cccc(Oc2ncc(Cl)cn2)c1Oc1ncc(Br)cn1 [Compound 27, 5-bromo-2-[2-fluoro-6-[(5-chloro-2-pyrimidinyl)oxy]phenoxy]pyrimidine]",pest or weed control at 31 g/ha,[1]; 31 g ai/ha,5%
same,pest or weed control at 62 g/ha,[1]; 62 g ai/ha,5%
same,pest or weed control at 125 g/ha,[1]; 125 g ai/ha,5%
same,pest or weed control at 250 g/ha,[1]; 250 g ai/ha,5%
same,pest or weed control at 31 g/ha,wild oat (Avena fatua); 31 g ai/ha,0%
same,pest or weed control at 62 g/ha,wild oat (Avena fatua); 62 g ai/ha,5%
same,pest or weed control at 125 g/ha,wild oat (Avena fatua); 125 g ai/ha,10%
same,pest or weed control at 250 g/ha,wild oat (Avena fatua); 250 g ai/ha,15%
same,pest or weed control at 31 g/ha,[2]; 31 g ai/ha,70%
same,pest or weed control at 62 g/ha,[2]; 62 g ai/ha,75%
same,pest or weed control at 125 g/ha,[2]; 125 g ai/ha,90%
same,pest or weed control at 250 g/ha,[2]; 250 g ai/ha,100%
same,plant injury at 31 g/ha,soybean (Glycine max); 31 g ai/ha,65%
same,plant injury at 62 g/ha,soybean (Glycine max); 62 g ai/ha,75%
same,plant injury at 125 g/ha,soybean (Glycine max); 125 g ai/ha,90%
same,plant injury at 250 g/ha,soybean (Glycine max); 250 g ai/ha,90%
same,pest or weed control at 31 g/ha,[3]; 31 g ai/ha,65%
same,pest or weed control at 62 g/ha,[3]; 62 g ai/ha,75%
same,pest or weed control at 125 g/ha,[3]; 125 g ai/ha,70%
same,pest or weed control at 250 g/ha,[3]; 250 g ai/ha,90%
same,pest or weed control at 31 g/ha,[4]; 31 g ai/ha,55%
same,pest or weed control at 62 g/ha,[4]; 62 g ai/ha,65%
same,pest or weed control at 125 g/ha,[4]; 125 g ai/ha,80%
same,pest or weed control at 250 g/ha,[4]; 250 g ai/ha,95%
same,"Corn plant response rating (crop injury, 0 = no effect, 100 = complete kill) at 31 g/ha",corn (Zea mays); 31 g ai/ha,10%
same,"Corn plant response rating (crop injury, 0 = no effect, 100 = complete kill) at 62 g/ha",corn (Zea mays); 62 g ai/ha,15%
same,"Corn plant response rating (crop injury, 0 = no effect, 100 = complete kill) at 125 g/ha",corn (Zea mays); 125 g ai/ha,20%
same,"Corn plant response rating (crop injury, 0 = no effect, 100 = complete kill) at 250 g/ha",corn (Zea mays); 250 g ai/ha,25%
same,pest or weed control at 31 g/ha,[5]; 31 g ai/ha,5%
same,pest or weed control at 62 g/ha,[5]; 62 g ai/ha,5%
same,pest or weed control at 125 g/ha,[5]; 125 g ai/ha,5%
same,pest or weed control at 250 g/ha,[5]; 250 g ai/ha,5%
same,pest or weed control at 31 g/ha,[6]; 31 g ai/ha,0%
same,pest or weed control at 62 g/ha,[6]; 62 g ai/ha,0%
same,pest or weed control at 125 g/ha,[6]; 125 g ai/ha,5%
same,pest or weed control at 250 g/ha,[6]; 250 g ai/ha,5%
same,pest or weed control at 31 g/ha,[7]; 31 g ai/ha,15%
same,pest or weed control at 62 g/ha,[7]; 62 g ai/ha,35%
same,pest or weed control at 125 g/ha,[7]; 125 g ai/ha,60%
same,pest or weed control at 250 g/ha,[7]; 250 g ai/ha,80%
same,pest or weed control at 31 g/ha,[8]; 31 g ai/ha,0%
same,pest or weed control at 62 g/ha,[8]; 62 g ai/ha,5%
same,pest or weed control at 125 g/ha,[8]; 125 g ai/ha,5%
same,pest or weed control at 250 g/ha,[8]; 250 g ai/ha,10%
same,plant injury at 31 g/ha,[9]; 31 g ai/ha,30%
same,plant injury at 62 g/ha,[9]; 62 g ai/ha,50%
same,plant injury at 125 g/ha,[9]; 125 g ai/ha,55%
same,plant injury at 250 g/ha,[9]; 250 g ai/ha,60%
same,pest or weed control at 31 g/ha,[10]; 31 g ai/ha,0%
same,pest or weed control at 62 g/ha,[10]; 62 g ai/ha,5%
same,pest or weed control at 125 g/ha,[10]; 125 g ai/ha,10%
same,pest or weed control at 250 g/ha,[10]; 250 g ai/ha,10%
same,plant injury at 31 g/ha,[11]; 31 g ai/ha,0%
same,plant injury at 62 g/ha,[11]; 62 g ai/ha,0%
same,plant injury at 125 g/ha,[11]; 125 g ai/ha,0%
same,plant injury at 250 g/ha,[11]; 250 g ai/ha,0%
same,pest or weed control at 31 g/ha,[12]; 31 g ai/ha,5%
same,pest or weed control at 62 g/ha,[12]; 62 g ai/ha,5%
same,pest or weed control at 125 g/ha,[12]; 125 g ai/ha,10%
same,pest or weed control at 250 g/ha,[12]; 250 g ai/ha,20%
same,pest or weed control at 31 g/ha,[13]; 31 g ai/ha,0%
same,pest or weed control at 62 g/ha,[13]; 62 g ai/ha,5%
same,pest or weed control at 125 g/ha,[13]; 125 g ai/ha,5%
same,pest or weed control at 250 g/ha,[13]; 250 g ai/ha,10%
same,pest or weed control at 31 g/ha,[14]; 31 g ai/ha,70%
same,pest or weed control at 62 g/ha,[14]; 62 g ai/ha,90%
same,pest or weed control at 125 g/ha,[14]; 125 g ai/ha,95%
same,pest or weed control at 250 g/ha,[14]; 250 g ai/ha,95%
same,pest or weed control at 31 g/ha,[15]; 31 g ai/ha,45%
same,pest or weed control at 62 g/ha,[15]; 62 g ai/ha,40%
same,pest or weed control at 125 g/ha,[15]; 125 g ai/ha,70%
same,pest or weed control at 250 g/ha,[15]; 250 g ai/ha,80%
same,pest or weed control at 31 g/ha,[16]; 31 g ai/ha,15%
same,pest or weed control at 62 g/ha,[16]; 62 g ai/ha,35%
same,pest or weed control at 125 g/ha,[16]; 125 g ai/ha,65%
same,pest or weed control at 250 g/ha,[16]; 250 g ai/ha,65%
same,pest or weed control at 31 g/ha,[17]; 31 g ai/ha,55%
same,pest or weed control at 62 g/ha,[17]; 62 g ai/ha,100%
same,pest or weed control at 125 g/ha,[17]; 125 g ai/ha,100%
same,pest or weed control at 250 g/ha,[17]; 250 g ai/ha,100%
same,pest or weed control at 31 g/ha,[18]; 31 g ai/ha,25%
same,pest or weed control at 62 g/ha,[18]; 62 g ai/ha,55%
same,pest or weed control at 125 g/ha,[18]; 125 g ai/ha,75%
same,pest or weed control at 31 g/ha,[19]; 31 g ai/ha,100%
same,pest or weed control at 62 g/ha,[19]; 62 g ai/ha,100%
same,pest or weed control at 125 g/ha,[19]; 125 g ai/ha,100%
